We go through three molecules from patent publication US7205306B2, “Substituted pyrazinones, pyridines and pyrimidines as corticotropin releasing factor ligands” (Bristol-Myers Squibb Pharma Company, priority 2001, dated 2007).

As usually defined, the melting point is the temperature, or range, at which the solid turns liquid.

`COC[C@@H](C)n1cc(Cl)nc(N2CCCc3cc(OC)cc(Br)c32)c1=O` [Example 553, 3-(8-Bromo-6-methoxy-1,2,3,4-tetrahydroquinoline)-5-chloro-1-[(1R)-2-methoxy-1-methylethyl]-2(1H)-pyrazinone] gave a melting point of 146 °C.
For `CC[C@H](COC)n1cc(Br)nc(N2CCCc3cc(OC)cc(Br)c32)c1=O` [Example 554, 5-Bromo-3-(8-bromo-6-methoxy-1,2,3,4-tetrahydroquinoline)-1-[(1R)-1-(methoxymethyl)propyl]-2(1H)-pyrazinone] the value was 102 to 103 °C; for `CC[C@@H](COC)n1cc(Cl)nc(N2CCCc3cc(OC)cc(Br)c32)c1=O` [Example 555, 3-(8-Bromo-6-methoxy-1,2,3,4-tetrahydroquinoline)-5-chloro-1-[(1S)-1-(methoxymethyl)propyl]-2(1H)-pyrazinone], 93 to 94 °C.
